Columns and labels:
[1] = Solubility in water (visual, confirmed by HPLC assay of a saturated solution); assay type: physicochemical; settings: thermodynamic from solid
Method: The solubility of the material was determined by adding water in aliquots from […] to approximately 100 mg of drug substance until the powder had dissolved. The visual solubility was confirmed by an HPLC assay of a saturated solution. Solubility: >100 mg/ml.

[2] = Solid state stability (storage for 1 month, HPLC assay); assay type: physicochemical; settings: glass bottle
Method: The solid state stability of the drug substance was determined by storing approximately 1.0 g of the material in a glass bottle at a) 40° C./75 % Relative Humidity (RH), open exposure, for 1 month and b) at 50° C., closed, for 1 month. The material was assayed by HPLC for final content and degradation products in both cases.

**Q.** With `CN(CCOc1ccc(CC2SC(=O)NC2=O)cc1)c1ccccn1.[K]` (centres unmarked) [Potassium Salt, 5-[4-[2-(N-Methyl-N-(2-pyridyl)amino)ethoxy]benzyl]thiazolidine-2,4-dione, potassium salt] as the molecule, how does the solubility [1] read?
**A.** > 100 mg/mL

**Q.** What about the “Degradation (HPLC, degradation products)” value ([2]; 40° C./75% RH, open exposure) of the same molecule?
**A.** No significant degradation observed

**Q.** What about the “HPLC assay for final content” value ([2]; 40° C./75% RH, open exposure) of the same molecule?
**A.** 101 % initial

**Q.** What about the “Degradation (HPLC, degradation products)” value ([2]; 50° C., closed) of the same molecule?
**A.** No significant degradation observed

**Q.** And the “HPLC assay for final content” value ([2]; 50° C., closed)?
**A.** 99 % initial
